# Where a SMILES comes first, the peptide text is derived from it. The star is where a group is joined. Cbz = O=C(OCc1ccccc1)*; CH2F = FC*
# Assays:
# [1] = target: Pseudomonas aeruginosa hemolytic phospholipase C PlcHR2, wild type (Pseudomonas aeruginosa, UniProt P06200); assay type: biochemical
# HUVEC = assay type: cell-based, Homo sapiens
# Pseudomonas aeruginosa hemolytic phospholipase C PlcHR2, wild type, sequence (P06200 39-730 limits assumed): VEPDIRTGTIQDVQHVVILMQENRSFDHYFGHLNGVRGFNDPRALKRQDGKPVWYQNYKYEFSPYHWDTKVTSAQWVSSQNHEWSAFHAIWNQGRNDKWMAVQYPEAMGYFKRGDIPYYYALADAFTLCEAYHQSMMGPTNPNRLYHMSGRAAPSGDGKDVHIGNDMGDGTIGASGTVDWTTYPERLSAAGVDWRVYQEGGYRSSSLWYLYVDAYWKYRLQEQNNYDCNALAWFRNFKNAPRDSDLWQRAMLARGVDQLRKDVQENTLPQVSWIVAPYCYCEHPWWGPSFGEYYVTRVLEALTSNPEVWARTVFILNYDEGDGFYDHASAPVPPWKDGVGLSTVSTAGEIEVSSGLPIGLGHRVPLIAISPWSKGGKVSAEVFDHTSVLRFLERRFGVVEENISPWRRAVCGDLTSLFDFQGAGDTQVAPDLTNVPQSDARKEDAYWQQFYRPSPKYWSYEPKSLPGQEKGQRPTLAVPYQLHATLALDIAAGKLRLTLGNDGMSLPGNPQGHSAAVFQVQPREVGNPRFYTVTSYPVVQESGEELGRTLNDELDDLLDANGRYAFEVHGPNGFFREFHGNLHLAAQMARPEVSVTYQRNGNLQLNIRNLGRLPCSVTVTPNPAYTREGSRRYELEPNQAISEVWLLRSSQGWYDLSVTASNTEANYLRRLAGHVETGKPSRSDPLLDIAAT
structure (smiles),measurement,setting,value
"C[N+](C)(C)CCOP(=O)([O-])Oc1ccc([N+](=O)[O-])cc1 [NPPC, ρ-nitrophenyl-phosphorylcholine]",Km,[1]; pH 7.2,19 mM
same,Vmax,[1]; pH 7.2,147 ± 6 µmol/min/mg
same,kcat,"[1]; pH 7.2, 37° C.",192 s⁻¹
COC(=O)C[C@H](NC(=O)[C@H](C)NC(=O)[C@@H](NC(=O)OCc1ccccc1)C(C)C)C(=O)CF [Z-VAD-FMK] (Cbz-Val-Ala-Asp(OMe)-CH2F),reduction of PlcHR2-induced LDH release,HUVEC,reduced the amount of LDH release

# Source: patent US20100284992A1 (priority 2006, published 2010)
